From US9290688B2, “Alkaline microbial enhanced oil recovery” (GEO FOSSIL FUELS, LLC, priority 2011, dated 2016)

Test system: Rhodococcus rhodochrous ATCC #53968
Experiment: Digestion of Red River crude oil with and without beta-oxidation inhibitors; GC of methyl esters of extracted organic acids
Type: cell-based
Conditions: for Total GC (all peaks integrated by the GC integrator): 0.31 g oil sample; for conv. To umoles FA: approximately 1.0 micromoles per 100 area units; for Cal. AN (calculated acid number): estimated from GC areas
Description: An oil degrading microorganism was used to evaluate the use of chemical inhibitors to slow the utilization of hydrocarbons in petroleum. In a non-limiting example, three different chemical compounds that have been reported to inhibit beta-oxidation were tested in oil and culture medium on a petroleum sample with a strain of Rhodococcus rhodochrous ATCC #53968 in m9 minimal medium. To test the ability of each chemical inhibitor to slow the consumption of fatty acids a culture of bacteria was grown on a crude oil sample for a period of three days with crude petroleum oil as the only carbon source. Four separate flasks were set up, each with an oil to aqueous media ratio of 1 to 5 (10 ml of crude oil to 50 ml of culture medium). Each of the three chemical inhibitors was added to a separate flask and a fourth flask was allowed to digest without the addition of a chemical inhibitor as a control. The flasks were shaken at a room temperature of about 25° C. under aerobic conditions. The progress of the microbial digestion was monitored by the optical density at 600 nm and by visual inspection of the brown oil color in the aqueous phase. Three days after the addition of inhibitors, or a total of six days of incubation with oil, a small sample of oil (0.31 g) was removed. A second sample of the same size was remover after another 6 days. The organic acids were extracted from each oil sample with 1% NaOH in 70% ethanol. The samples were shaken vigorously for one minute. The aqueous extract material was then extracted with hexane to remove any trace of oil. The samples of extracted organic acids were then dried under vacuum and converted to methyl esters with BF3 in methanol.
The mixtures of methyl esters were analyzed by GC (gas chromatography) using a HP (Hewlett Packard) 5890 GC with an Agilent Technologies capillary column, HP-5 (crosslinked 5% PH) ME Siloxane 0.25 micrometer coating with a length of 30 meter and a column ID (internal diameter) of 0.32 mm. Helium was used as a carrier gas. Detection was by a FID detector and integration of peak areas was done with a HP 3396 integrator. The temperature program held an initial temperature of 40° C. for 1.0 minutes then increased at 15 degrees per minute to 280° C., and finally held at a temperature of 280° C. for 5 minutes. To quantify the amount of organic acids extracted by this procedure, a stock solution of 2-bromooctanoate and 2-bromohexadecanoate were added to a sample of undigested Red River crude petroleum oil and then extracted by the same procedure as the bio-digested oil samples. The average area for theses two organic acids was used to estimate the amount of organic acids in micromoles per area unit determined by the GC integrator. The number was calculated to be approximately 1.0 micromoles per 100 area units. The area units for each of the GC peaks are list in Table 2. This number was used to estimate the micromoles organic acids extracted from the oil. This estimate was used to calculate the number of mg of KOH that equaled the number of micromoles of organic acid estimated. This number is listed on the last row in Table 2 as the calculated AN (acid number) for each digestion experiment. These estimated numbers are only based on organic acids that are hydrophobic enough to stay in the oil phase and not move into the aqueous phase. Organic acids measured include the carboxylic acids made by the bacteria and that have been secreted out of the cell and have migrated back to the oil phase. They are also hydrocarbons that are small enough to be extracted into the ethanol aqueous extraction solvent. This number is likely to be less than the total acid number (TAN), a measure often used to evaluate crude petroleum for amenability to alkaline waterflooding.
The earlier eluting peaks are believed to represent methyl ester of lighter hydrocarbon carboxylic acids and the later eluting peaks are believed to represent methyl ester of the heavier organic acids. […]

[1] = 12 days, listed as acrylic acid

`CCCCCCC(Br)C(=O)O` (centres unmarked) [Br C8, 2-bromooctanoic acid] was tested, and the “GC peak area, retention time 4.5” value (6 days) was 0.351 area units, the “GC peak area, retention time 5.6” value (6 days) was 0.835 area units and the “GC peak area, retention time 6.6” value (6 days) was 2.783 area units. For the same compound, the “GC peak area, retention time 7.6” value (6 days) was 2.476 area units, the “GC peak area, retention time 8.2” value (6 days) was 0.682 area units and the “GC peak area, retention time 8.5” value (6 days) was 1.443 area units. The “GC peak area, retention time 9.4” value (6 days) was 1.146 area units, the “GC peak area, retention time 10.2” value (6 days) was 1.618 area units and the “GC peak area, retention time 11” value (6 days) was 2.608 area units. The “GC peak area, retention time 11.5” value (6 days) was 1.69 area units, the “GC peak area, retention time 11.7” value (6 days) was 3.004 area units and the “GC peak area, retention time 12.3” value (6 days) was 1.604 area units. For the same compound, the “GC peak area, retention time 12.5” value (6 days) was 4.566 area units, the “GC peak area, retention time 12.7” value (6 days) was 1.145 area units and the “GC peak area, retention time 13” value (6 days) was 1.421 area units. For the same compound, the “GC peak area, retention time 13.1” value (6 days) was 2.61 area units, the “GC peak area, retention time 13.2” value (6 days) was 3.047 area units and the “GC peak area, retention time 13.4” value (6 days) was 2.196 area units. The “GC peak area, retention time 13.6” value (6 days) was 1.314 area units, the “GC peak area, retention time 13.8” value (6 days) was 3.341 area units and the “GC peak area, retention time 14” value (6 days) was 1.661 area units. The “GC peak area, retention time 14.2” value (6 days) was 0.963 area units, the “SubTotal peak area, later peaks eluting after 13 minutes” value (from here on “SubTotal peak area, later peaks eluting”) (6 days) was 16.553 area units and the “SubTotal peak area, peaks eluting before 13 minutes” value (6 days) was 25.951 area units. For the same compound, the “Total GC area For 1 ml” value (6 days) was 250, the “Total of all selected peaks” value (6 days) was 42.504 area units and the “Total GC (all peaks integrated by the GC integrator)” value (6 days) was 77.5 area units. For the same compound, the “conv. To umoles FA” value (6 days) was 2.5 µmol, the “Cal. AN (calculated acid number)” value (6 days) was 0.14 mg of KOH and the “GC peak area, retention time 4.2” value (12 days) was 0.47 area units. The “GC peak area, retention time 4.5” value (12 days) was 0.943 area units, the “GC peak area, retention time 5.6” value (12 days) was 1.656 area units and the “GC peak area, retention time 6.6” value (12 days) was 4.625 area units. The “GC peak area, retention time 7.6” value (12 days) was 3.349 area units, the “GC peak area, retention time 8.2” value (12 days) was 0.497 area units and the “GC peak area, retention time 8.5” value (12 days) was 1.763 area units. For the same compound, the “GC peak area, retention time 9.4” value (12 days) was 0.681 area units, the “GC peak area, retention time 10.2” value (12 days) was 0.387 area units and the “GC peak area, retention time 11” value (12 days) was 0.985 area units. The “GC peak area, retention time 11.5” value (12 days) was 3.548 area units, the “GC peak area, retention time 11.7” value (12 days) was 2.41 area units and the “GC peak area, retention time 12.3” value (12 days) was 2.973 area units. For the same compound, the “GC peak area, retention time 12.5” value (12 days) was 5.664 area units, the “GC peak area, retention time 13” value (12 days) was 2.785 area units and the “GC peak area, retention time 13.1” value (12 days) was 4.367 area units. The “GC peak area, retention time 13.2” value (12 days) was 7.327 area units, the “GC peak area, retention time 13.4” value (12 days) was 8.161 area units and the “GC peak area, retention time 13.6” value (12 days) was 4.176 area units. For the same compound, the “GC peak area, retention time 13.8” value (12 days) was 4.901 area units, the “GC peak area, retention time 14” value (12 days) was 4.709 area units and the “GC peak area, retention time 14.2” value (12 days) was 1.74 area units. For the same compound, the “SubTotal peak area, later peaks eluting” value (12 days) was 38.166 area units, the “SubTotal peak area, peaks eluting before 13 minutes” value (12 days) was 31.453 area units and the “Total GC area For 1 ml” value (12 days) was 373. The “Total of all selected peaks” value (12 days) was 69.619 area units, the “Total GC (all peaks integrated by the GC integrator)” value (12 days) was 115.7 area units and the “conv. To umoles FA” value (12 days) was 3.73 µmol. For the same compound, the “Cal. AN (calculated acid number)” value (12 days) was 0.21 mg of KOH.

For `C=CC(=O)O` [AA, acrylic acid], the “GC peak area, retention time 4.5” value (6 days) was 0.242 area units, the “GC peak area, retention time 5.6” value (6 days) was 0.948 area units and the “GC peak area, retention time 6.6” value (6 days) was 2.856 area units. For the same compound, the “GC peak area, retention time 7.6” value (6 days) was 2.724 area units, the “GC peak area, retention time 8.2” value (6 days) was 0.703 area units and the “GC peak area, retention time 8.5” value (6 days) was 1.907 area units. The “GC peak area, retention time 9.4” value (6 days) was 1.575 area units, the “GC peak area, retention time 10.2” value (6 days) was 1.591 area units and the “GC peak area, retention time 11” value (6 days) was 2.134 area units. The “GC peak area, retention time 11.5” value (6 days) was 2.596 area units, the “GC peak area, retention time 11.7” value (6 days) was 2.416 area units and the “GC peak area, retention time 12.3” value (6 days) was 1.097 area units. For the same compound, the “GC peak area, retention time 12.5” value (6 days) was 4.385 area units, the “GC peak area, retention time 13” value (6 days) was 0.521 area units and the “GC peak area, retention time 13.1” value (6 days) was 1.769 area units. The “GC peak area, retention time 13.2” value (6 days) was 3.486 area units, the “GC peak area, retention time 13.4” value (6 days) was 1.122 area units and the “GC peak area, retention time 13.6” value (6 days) was 0.783 area units. The “GC peak area, retention time 13.8” value (6 days) was 2.448 area units, the “GC peak area, retention time 14” value (6 days) was 0.447 area units and the “GC peak area, retention time 14.2” value (6 days) was 0.78 area units. For the same compound, the “SubTotal peak area, later peaks eluting” value (6 days) was 11.356 area units, the “SubTotal peak area, peaks eluting before 13 minutes” value (6 days) was 25.173 area units and the “Total GC area For 1 ml” value (6 days) was 175. The “Total of all selected peaks” value (6 days) was 36.529 area units, the “Total GC (all peaks integrated by the GC integrator)” value (6 days) was 54.17 area units and the “conv. To umoles FA” value (6 days) was 1.75 µmol. The “Cal. AN (calculated acid number)” value (6 days) was 0.098 mg of KOH, the “GC peak area, retention time 4.2” value (12 days) was 0.58 area units and the “GC peak area, retention time 4.5” value (12 days) was 1.051 area units. For the same compound, the “GC peak area, retention time 4.6” value (12 days) was 1.519 area units, the “GC peak area, retention time 5.6” value (12 days) was 2.754 area units and the “GC peak area, retention time 6.6” value (12 days) was 7.835 area units. For the same compound, the “GC peak area, retention time 7.6” value (12 days) was 5.761 area units, the “GC peak area, retention time 8.2” value (12 days) was 0.558 area units and the “GC peak area, retention time 8.5” value (12 days) was 3.369 area units. The “GC peak area, retention time 9.4” value (12 days) was 0.747 area units, the “GC peak area, retention time 10.2” value (12 days) was 0.588 area units and the “GC peak area, retention time 11” value (12 days) was 1.736 area units. For the same compound, the “GC peak area, retention time 11.5” value (12 days) was 2.968 area units, the “GC peak area, retention time 11.7” value (12 days) was 3.716 area units and the “GC peak area, retention time 12.3” value (12 days) was 2.722 area units. For the same compound, the “GC peak area, retention time 12.5” value (12 days) was 6.208 area units, the “GC peak area, retention time 12.7” value (12 days) was 1.6421 area units and the “GC peak area, retention time 13” value (12 days) was 1.99 area units. For the same compound, the “GC peak area, retention time 13.1” value (12 days) was 2.209 area units, the “GC peak area, retention time 13.2” value (12 days) was 4.801 area units and the “GC peak area, retention time 13.4” value (12 days) was 3.72 area units. For the same compound, the “GC peak area, retention time 13.6” value (12 days) was 2.005 area units, the “GC peak area, retention time 13.8” value (12 days) was 2.512 area units and the “GC peak area, retention time 14” value (12 days) was 2.548 area units. The “GC peak area, retention time 14.2” value (12 days) was 2.779 area units, the “SubTotal peak area, later peaks eluting” value (12 days) was 22.564 area units and the “SubTotal peak area, peaks eluting before 13 minutes” value (12 days) was 43.754 area units. For the same compound, the “Total GC area For 1 ml” value (12 days) was 291, the “Total of all selected peaks” value (12 days) was 66.318 area units and the “Total GC (all peaks integrated by the GC integrator)” value (12 days) was 90.15 area units. For the same compound, the “conv. To umoles FA” value (12 days) was 2.91 µmol, the “Cal. AN (calculated acid number)” value (12 days) was 0.16 mg of KOH and the “SubTotal peak area, later peaks eluting” value [1] was 22.5 area units. The “SubTotal peak area, peaks eluting before 13 minutes” value [1] was 43.7 area units.
